In ChEMBL document CHEMBL4396864, “Small-Molecule Modulators of the Hypoxia-Inducible Factor Pathway: Development and Therapeutic Applications” (J Med Chem, 2019):
Blank lines part the entries; values can stand above or below the molecule they belong to.

Legend:
[1] = biological target: T1, CREB-binding protein/Histone acetyltransferase p300 (Homo sapiens, UniProt Q09472+Q92793); experiment: Inhibition of GST-tagged p300 (unknown origin)/CBP (unknown origin) protein-protein interaction; type: protein assay
[2] = biological target: Hypoxia-inducible factor 1-alpha (Homo sapiens, UniProt Q16665); experiment: Inhibition of HIF-1alpha in human U373 cells; type: cell-based, U-373MG ATCC
[3] = biological target: Histone acetyltransferase p300 (Homo sapiens, UniProt Q09472); experiment: Binding affinity to p300 (unknown origin)
[4] = biological target: T1, CREB-binding protein/Histone acetyltransferase p300; experiment: Inhibition of GST-tagged p300 (unknown origin)/CBP (unknown origin) protein-protein interaction by fluorescence polarization assay
Hep 3B2 = experiment: Downregulation of VEGF protein level in human Hep3B cells after 8 hrs by ELISA; type: functional, cell-based

Sequence of Histone acetyltransferase p300 (Q09472 whole entry): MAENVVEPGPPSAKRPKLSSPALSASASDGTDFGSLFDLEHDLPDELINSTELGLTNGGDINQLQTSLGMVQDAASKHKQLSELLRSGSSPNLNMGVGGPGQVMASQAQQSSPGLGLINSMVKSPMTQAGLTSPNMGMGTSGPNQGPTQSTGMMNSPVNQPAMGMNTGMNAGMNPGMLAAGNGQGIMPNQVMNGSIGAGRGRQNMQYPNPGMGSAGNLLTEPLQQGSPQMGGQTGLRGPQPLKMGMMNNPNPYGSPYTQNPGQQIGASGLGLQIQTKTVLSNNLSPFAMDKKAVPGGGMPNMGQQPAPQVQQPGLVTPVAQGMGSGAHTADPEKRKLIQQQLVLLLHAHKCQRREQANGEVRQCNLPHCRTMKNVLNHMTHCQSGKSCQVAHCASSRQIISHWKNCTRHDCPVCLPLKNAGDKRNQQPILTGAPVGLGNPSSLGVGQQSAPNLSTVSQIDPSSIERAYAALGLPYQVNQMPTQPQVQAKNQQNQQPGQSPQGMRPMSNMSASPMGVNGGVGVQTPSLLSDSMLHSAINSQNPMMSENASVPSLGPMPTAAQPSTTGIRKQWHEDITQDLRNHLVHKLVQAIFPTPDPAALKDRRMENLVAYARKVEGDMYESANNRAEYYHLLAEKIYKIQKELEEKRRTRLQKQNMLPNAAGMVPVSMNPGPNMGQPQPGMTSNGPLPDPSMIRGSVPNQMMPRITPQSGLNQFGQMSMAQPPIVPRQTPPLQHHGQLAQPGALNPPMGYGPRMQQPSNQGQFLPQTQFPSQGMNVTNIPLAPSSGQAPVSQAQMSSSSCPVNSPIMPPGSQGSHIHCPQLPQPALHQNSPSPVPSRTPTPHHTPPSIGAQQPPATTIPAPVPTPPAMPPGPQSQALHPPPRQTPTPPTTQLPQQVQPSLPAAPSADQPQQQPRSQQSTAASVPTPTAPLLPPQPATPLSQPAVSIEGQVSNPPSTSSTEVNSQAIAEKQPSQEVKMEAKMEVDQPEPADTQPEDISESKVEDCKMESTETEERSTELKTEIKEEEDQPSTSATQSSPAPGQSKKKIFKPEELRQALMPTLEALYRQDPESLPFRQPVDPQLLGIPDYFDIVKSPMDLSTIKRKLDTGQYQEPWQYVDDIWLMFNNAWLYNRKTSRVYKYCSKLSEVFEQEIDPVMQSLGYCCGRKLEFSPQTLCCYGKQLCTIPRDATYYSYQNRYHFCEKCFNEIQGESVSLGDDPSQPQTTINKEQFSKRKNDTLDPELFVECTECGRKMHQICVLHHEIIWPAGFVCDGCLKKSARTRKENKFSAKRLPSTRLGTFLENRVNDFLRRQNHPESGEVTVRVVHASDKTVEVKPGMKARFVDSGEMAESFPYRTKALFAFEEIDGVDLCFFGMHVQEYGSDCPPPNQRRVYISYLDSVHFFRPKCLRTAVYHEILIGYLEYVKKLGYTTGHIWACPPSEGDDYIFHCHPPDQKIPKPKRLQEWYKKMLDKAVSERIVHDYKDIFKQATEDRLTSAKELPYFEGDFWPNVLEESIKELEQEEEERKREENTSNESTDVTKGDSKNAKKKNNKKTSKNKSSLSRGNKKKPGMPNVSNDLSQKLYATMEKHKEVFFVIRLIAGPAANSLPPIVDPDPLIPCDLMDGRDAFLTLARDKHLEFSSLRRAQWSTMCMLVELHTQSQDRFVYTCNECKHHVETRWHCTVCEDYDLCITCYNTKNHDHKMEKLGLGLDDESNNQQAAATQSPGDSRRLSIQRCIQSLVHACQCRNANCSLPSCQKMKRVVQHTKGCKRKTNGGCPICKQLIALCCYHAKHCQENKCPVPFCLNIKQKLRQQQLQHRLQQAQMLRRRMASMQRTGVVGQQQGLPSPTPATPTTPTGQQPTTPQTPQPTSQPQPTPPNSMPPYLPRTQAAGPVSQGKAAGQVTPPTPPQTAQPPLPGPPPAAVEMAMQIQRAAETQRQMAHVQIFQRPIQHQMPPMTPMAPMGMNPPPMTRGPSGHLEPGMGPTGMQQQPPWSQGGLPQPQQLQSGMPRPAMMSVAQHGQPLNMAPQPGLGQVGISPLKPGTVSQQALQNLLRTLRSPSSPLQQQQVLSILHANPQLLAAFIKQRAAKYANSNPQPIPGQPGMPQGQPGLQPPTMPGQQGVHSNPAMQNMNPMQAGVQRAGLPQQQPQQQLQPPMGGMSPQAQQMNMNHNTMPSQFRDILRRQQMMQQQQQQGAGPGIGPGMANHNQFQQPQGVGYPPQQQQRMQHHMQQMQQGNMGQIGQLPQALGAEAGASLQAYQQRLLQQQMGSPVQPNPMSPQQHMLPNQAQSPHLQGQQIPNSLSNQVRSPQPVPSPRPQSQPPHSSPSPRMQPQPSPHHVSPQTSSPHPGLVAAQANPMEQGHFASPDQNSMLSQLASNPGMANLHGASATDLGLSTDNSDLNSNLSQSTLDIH
Sequence of Hypoxia-inducible factor 1-alpha (Q16665 whole entry): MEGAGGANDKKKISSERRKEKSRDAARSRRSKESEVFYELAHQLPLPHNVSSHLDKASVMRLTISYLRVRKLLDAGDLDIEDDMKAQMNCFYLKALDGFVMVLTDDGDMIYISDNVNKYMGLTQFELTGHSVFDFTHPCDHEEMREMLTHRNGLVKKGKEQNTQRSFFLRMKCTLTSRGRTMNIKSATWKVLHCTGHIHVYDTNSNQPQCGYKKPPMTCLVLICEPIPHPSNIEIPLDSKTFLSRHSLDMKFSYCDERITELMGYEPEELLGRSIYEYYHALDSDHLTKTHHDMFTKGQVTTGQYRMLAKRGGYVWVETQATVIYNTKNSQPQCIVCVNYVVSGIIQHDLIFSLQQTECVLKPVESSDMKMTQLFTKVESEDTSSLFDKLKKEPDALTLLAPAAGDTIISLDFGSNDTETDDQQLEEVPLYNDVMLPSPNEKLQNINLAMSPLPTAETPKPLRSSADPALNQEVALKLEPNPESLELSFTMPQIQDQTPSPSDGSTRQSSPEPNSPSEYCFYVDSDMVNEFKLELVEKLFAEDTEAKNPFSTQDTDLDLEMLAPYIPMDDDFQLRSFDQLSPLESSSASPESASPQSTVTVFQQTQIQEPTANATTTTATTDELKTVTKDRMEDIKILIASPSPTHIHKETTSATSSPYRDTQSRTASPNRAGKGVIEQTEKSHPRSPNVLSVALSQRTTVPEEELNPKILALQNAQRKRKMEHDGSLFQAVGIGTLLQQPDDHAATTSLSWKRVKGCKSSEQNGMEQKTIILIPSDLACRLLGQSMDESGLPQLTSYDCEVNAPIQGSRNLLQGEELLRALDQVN

IC50 [1]: 107000 nM
SMILES: CC(C)Cc1cc(CNC(=O)N2CCN(CC(=O)Nc3ccccc3Cl)CC2)nn1-c1ccccc1.Cl

SMILES: COc1cc([C@@H]2c3cc4c(cc3[C@@H](Nc3ccc([N+](=O)[O-])cc3)[C@H]3COC(=O)[C@H]23)OCO4)cc(OC)c1O
IC50 [2]: 1 to 5 nM

Kd [3]: 690 nM
SMILES: CC(C)C[C@H](NC(=O)[C@H](C)NC(=O)[C@H](CCCNC(=N)N)NC(=O)[C@H](C)N1CC/C=C\CC(=O)N[C@@H](CCC(=O)O)C(=O)N[C@@H](CC(C)C)C1=O)C(=O)N[C@@H](CC(=O)O)C(=O)N[C@@H](CCC(N)=O)C(N)=O

SMILES: CN1C(=O)[C@]2(Cc3ccc(CCc4ccc(C[C@@]56SS[C@@](CO)(C(=O)N5C)N(C)C6=O)cc4)cc3)SS[C@@]1(CO)C(=O)N2C
IC50 [4]: 600 nM

SMILES: CN1C(=O)[C@]2(Cc3ccc(C[C@@]45SS[C@@](CO)(C(=O)N4C)N(C)C5=O)cc3)SS[C@@]1(CO)C(=O)N2C
IC50 [4]: 1500 nM

SMILES: CN1C(=O)[C@@]23C[C@]4([C@]56C[C@@]78SS[C@@](CO)(C(=O)N7[C@H]5Nc5ccccc56)N(C)C8=O)c5ccccc5N[C@@H]4N2C(=O)[C@]1(CO)SS3 [CHAETOCIN]
IC50 (Hep 3B2): 100 nM
